We go through 53 molecules from PubChem BioAssay AID1996.

≈ marks a conversion by molar mass, not a printed value.

For the series the following is noted: buffer; pH 7.4; 200.0 µM.
Regarding `Cc1cc(SCC(=O)NC2CCCCC2)nc2ccccc12`, the kinetic solubility turned out to be 1.2 µg/mL (≈ 3.82 µM).
As for `COc1ccc(C=O)cc1CSc1ccccn1`, the figure is 38.2 µg/mL (≈ 147 µM).
To `CC1C(=O)C(C)C(c2ccc(Cl)cc2)NC1c1ccc(Cl)cc1.Cl` (stereo not drawn) belongs less than 0.8 µg/mL; to `COc1ccc(CN2CCCN(C)CC2)c(OC)c1C`, 26.8 µg/mL (≈ 96.3 µM).
`CC(C)(C)c1ccc(/C=C2/SC(N3CCCC3)=NC2=O)cc1` yielded a solubility (kinetic) of 15.4 µg/mL (≈ 49 µM).
As for `Nc1nc2c([N+](=O)[O-])cccc2s1`, the solubility (kinetic) was 23 µg/mL (≈ 118 µM).
`CN(CC(=O)Nc1ccc(S(N)(=O)=O)cc1)C1CCCCC1` came in with a kinetic solubility greater than 48.8 µg/mL.
Take `Clc1ccc(-c2nc(-c3ccncc3)no2)c(Cl)c1`: the solubility (kinetic) is less than 0.2 µg/mL.
Consider `CCOc1ncccc1C(=O)Nc1ccc(F)cc1`, for which the solubility (kinetic) was found to be 13.7 µg/mL (≈ 52.6 µM).
As to `O=C(COC(=O)Cc1ccsc1)Nc1ccccc1Cl`, the solubility (kinetic) was greater than 46.5 µg/mL.
To `CCC(=O)Nc1ccc(CCC(=O)N2CCCC2)cc1` belongs 40 µg/mL (≈ 146 µM); to `O=C(NCC1CC1)Nc1cccc(Cl)c1`, greater than 33.7 µg/mL.
In the case of `Cc1cc(NC(=O)C(C)Sc2nc(-c3ccccc3)cc(=O)[nH]2)no1` (stereo not drawn), the kinetic solubility came to 17.4 µg/mL (≈ 48.8 µM).
To `O=S(=O)(c1cccc2cccc(Cl)c12)N1CCCC1` belongs 15 µg/mL (≈ 50.7 µM).
Molecule `Cc1ccc(CSCC(=O)Nc2ccccc2F)cc1` gave a solubility (kinetic) of 27.6 µg/mL (≈ 95.4 µM).
As for `O=C(NCc1cccnc1)C(=O)Nc1ccc2c(c1)OCO2`, the figure is 42.7 µg/mL (≈ 143 µM); as for `CCOc1ccc(NC(=S)N2CCCC2)cc1`, greater than 37.6 µg/mL; as for `CN(CC(=O)Nc1ccc(F)cc1)C(=O)C1CCCC1`, greater than 41.7 µg/mL.
Consider `Cc1ccc(NC(=O)Nc2ccno2)cc1`, for which the kinetic solubility was greater than 32.6 µg/mL.
The molecule `CCCNS(=O)(=O)c1ccc(OCC(=O)NCC2CCCO2)cc1` (stereo not drawn) returned a solubility (kinetic) of 51.2 µg/mL (≈ 144 µM).
For `COc1ccc(C(=O)OCC(=O)N2CCCC2=O)c(OC)c1`, the solubility (kinetic) was determined as 40.3 µg/mL (≈ 131 µM).
With `Cc1[nH]c2ccccc2c1SCC(=O)NC1CCCCC1`, the kinetic solubility was greater than 45.4 µg/mL.
The molecule `CCCOC(=O)CC1C(=O)NCCN1Cc1cc(OC)cc(OC)c1` (stereo not drawn) showed a kinetic solubility greater than 52.6 µg/mL.
Consider `CC(C)C(=O)Nc1c(-c2ccccc2)c(=O)c2ccccc2n1C`, for which the kinetic solubility came out at 9.2 µg/mL (≈ 28.7 µM).
With `COC(=O)Cc1ccc(NC(=S)N2CCCCC2C)cc1` (stereo not drawn), the solubility (kinetic) is greater than 46 µg/mL.
`Cn1c(=O)c(C(N)=S)cn(-c2ccccc2)c1=O` displayed a solubility (kinetic) of 25.5 µg/mL (≈ 97.6 µM).
Regarding `Cc1cccc(C(=O)OCC(=O)N2CCCC2=O)c1[N+](=O)[O-]`, the kinetic solubility is greater than 45.9 µg/mL.
As for `CN1CCCN(C(=O)c2ccccc2Cl)CC1`, the figure is greater than 37.9 µg/mL; as for `O=C(/C=C/c1c(F)cccc1Cl)N1CCc2ccccc2C1`, 5.9 µg/mL (≈ 18.7 µM); as for `COc1ccc(C(C)=O)cc1COc1ccccc1[N+](=O)[O-]`, less than 0.6 µg/mL.
For the molecule `O=C(COC(=O)C12CC3CC(CC(C3)C1)C2)Nc1nccs1`, the kinetic solubility was less than 0.3 µg/mL.
As for `C#CCN1C(=O)C2(OCCO2)c2ccccc21`, the solubility (kinetic) is greater than 34.4 µg/mL.
In the case of `Oc1ccc(C(=S)N2CCN(c3cccc(Cl)c3)CC2)cc1`, the kinetic solubility was 1.3 µg/mL (≈ 3.91 µM).
As for `CNC(=O)O/N=C(\N)Cc1csc2ccc(Cl)cc12`, the figure is 44.1 µg/mL (≈ 148 µM); as for `Cc1c(C(=O)Nc2ccc3c(c2)OCO3)oc2ccccc12`, 2.9 µg/mL (≈ 9.82 µM); as for `O=C(O)CCN=Cc1c(O)c2ccccc2oc1=O`, greater than 39.2 µg/mL.
As for `Cc1nc2ccccc2n1CC(=O)c1ccccc1`, the figure is 37 µg/mL (≈ 148 µM).
`Cc1cc2c(sc3ccccc32)c(C)n1.Cl` had a kinetic solubility of 3.7 µg/mL. Against the preceding molecule, the solubility kinetic is about 10-fold lower.
On to `Cc1cc(OCC(=O)NC2CC2)c2c(C)c(C)c(=O)oc2c1`, for which the solubility (kinetic) came to 2.5 µg/mL (≈ 8.3 µM).
Molecule `C/C(=N/NC(=O)CNC(=O)c1cccs1)c1ccco1` had a solubility (kinetic) greater than 43.7 µg/mL.
For the molecule `Cc1nc([N+](=O)[O-])cn1CC(=O)Nc1ccc(F)c(Cl)c1`, the solubility (kinetic) turned out to be 1.2 µg/mL (≈ 3.84 µM).
`Cc1cc(C(=O)N2CCC(C(=O)O)CC2)c(C)o1` showed a kinetic solubility greater than 37.7 µg/mL.
In turn, `O=c1cc(C(O)C[N+](=O)[O-])occ1OCc1ccccc1` (stereo not drawn) yielded a solubility (kinetic) of 41.6 µg/mL (≈ 143 µM).
With `Cc1ccc(N2C(=O)CS/C2=N\C(=S)Nc2ccccc2)cc1`, the solubility (kinetic) was found to be 1 µg/mL (≈ 2.93 µM).
`COc1ccc(NC(=O)CS(=O)c2cccc(Cl)c2)cc1` (stereo not drawn) had a kinetic solubility greater than 48.6 µg/mL.
As for `CN(C)C(=O)c1cc(C(=O)c2ccccc2)c[nH]1`, the figure is greater than 36.3 µg/mL.
In turn, `CN1CCCC(OC(=O)c2ccc(C(C)(C)C)cc2)C1.Cl` (stereo not drawn) returned a kinetic solubility greater than 46.8 µg/mL.
With `Cl.O=c1cn[nH]c2ccccc12`, the solubility (kinetic) was greater than 27.4 µg/mL.
As for `COP(=O)(OC)C(NC(=O)Nc1ccccc1)c1ccccc1` (stereo not drawn), the figure is 43.9 µg/mL (≈ 131 µM); as for `N#CCC(=O)Nc1ccc(C(=O)OCC(=O)N2CCN(C(=O)c3ccco3)CC2)cc1`, greater than 63.7 µg/mL.
Consider `COc1ccc2[nH]c(C(=O)Nc3ncc(C)cc3Br)cc2c1`, for which the solubility (kinetic) was found to be 6.1 µg/mL (≈ 16.9 µM).
`CC1Cn2c(nc3sc4c(c3c2=O)CC(C)(C)OC4)N1CCO` (stereo not drawn) came in with a kinetic solubility greater than 50.3 µg/mL.
Consider `CN1CCN(S(=O)(=O)c2cccc3nsnc23)CC1`, for which the solubility (kinetic) was greater than 44.8 µg/mL.

Broadly, the solubility (kinetic) is solubility judged after dilution from a stock solution rather than from solid.
